Results as given in patent US20080210905A1, “ORGANIC-ELECTROLUMINESCENCE-MATERIAL-CONTAINING SOLUTION, METHOD FOR SYNTHESIZING ORGANIC ELECTROLUMINESCENCE MATERIAL, COMPOUND SYNTHESIZED BY THE METHOD, METHOD FOR FORMING THIN FILM OF ORGANIC ELECTROLUMINESCENCE MATERIAL, THIN FILM OF ORGANIC ELECTROLUMINESCENCE MATERIAL AND ORGANIC …” (Idemitsu Kosan Co., Ltd., priority 2006, published 2008).

Legend:
[1] = Solubility evaluation: compound stirred in toluene, visual check for insoluble matter; format: physicochemical; settings: for Presence of insoluble matter: 0.01 g of anthracene compound and 1 g of toluene, stirred, visual check; for solubility in toluene: concluded from visual check of 0.01 g compound in 1 g toluene
Text: In order to evaluate a relationship between the soluble portion B and the solubility, how the solubility was changed depending on the bonding number U of the solubility portion B was examined.
As the compound, an anthracene compound as represented by the following formula was used.
A solubility portion B of the compound was structured as represented by the formula (3), and the bonding number of the solubility portion is represented by (a).
With the above structure, compounds respectively having bonding numbers (a) of 1, 2, 3 and 6 were synthesized.
Then, 0.01 g of the anthracene compound and 1 g of toluene were put into a glass bottle to be stirred.
Whether or not any insoluble matter was present in the solution was observed by a visual check.
In order to evaluate a relationship between unit(s) structuring the soluble portion B and the solubility, how the solubility was changed depending on the structure of the solubility portion B was examined.
Compounds used in the examination were AN-1, AN-3, AN-4 and an-1.
For evaluation of the solubility, as in the solubility evaluation 1, 0.01 g of the anthracene compound and 1 g of toluene were put into a glass bottle to be stirred. Then, whether or not any insoluble matter was present in the solution was observed by a visual check.

[2] = Solubility of compound (a) in toluene, evaluated in advance; format: physicochemical

| SMILES | Presence of insoluble matter [1] | solubility in toluene [1] | solubility in toluene [2] |
| --- | --- | --- | --- |
| c1ccc(-c2cccc(-c3ccc(-c4ccc(-c5cccc(-c6cccc(-c7cccc(-c8c9ccccc9c(-c9ccc%10ccccc%10c9)c9ccccc89)c7)c6)c5)cc4)cc3)c2)cc1 [AN-3] | no insoluble matter present | ≥ 1 wt % |  |
| c1ccc(-c2ccc(-c3cccc(-c4cccc(-c5cccc(-c6cccc(-c7cccc(-c8c9ccccc9c(-c9ccc%10ccccc%10c9)c9ccccc89)c7)c6)c5)c4)c3)cc2)cc1 [AN-4] | no insoluble matter present | ≥ 1 wt % |  |
| c1ccc(-c2ccccc2-c2ccc3c(-c4ccccc4)c4ccccc4c(-c4ccccc4)c3c2)cc1 [compound (a)] |  |  | 10 wt % |
